Measured values taken from patent publication US12280072B2, “Oligosaccharide compound for inhibiting intrinsic coagulation factor X-enzyme complex, and preparation method therefor and uses thereof” (Jiuzhitang Co., Ltd., priority 2017, dated 2025).
Where two headings read alike, the source gives them in different places.

Legend:
human-controlled plasma [1] = experiment: Anticoagulant activity assay: APTT clotting time; format: biochemical
Method in brief: (§1)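 Compounds in Tris-HCl buffer were serially diluted, and 10 μL was added to 90 μL human control plasma. PT and APTT clotting times were measured on an MC-4000 coagulometer following kit instructions.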

human-controlled plasma [2] = experiment: Anticoagulant activity assay: PT clotting time; format: biochemical
Method in brief: as §1

plasma = experiment: TT (thrombin time) clotting time; format: biochemical
intrinsic factor Xase = target: T1, intrinsic factor Xase (Homo sapiens, UniProt P00740); experiment: Xase inhibitory activity assay; format: biochemical
T1 construct: 60 nM FIXa; purchased
Method in brief: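 Reagents mixed at 37 °C: compound with FVIII (2 IU/ml) and FIXa reagent (60 nM, with FIIa, PC/PS, Ca2+) for 2 min, then FX reagent (50 nM, with thrombin inhibitor) for 1 min, then chromogenic substrate SXa-11. OD405 slope over 7.5 min, relative to buffer control as 100%; IC50 from Hill-equation fit.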

FXa (Homo sapiens) = target: T2, FXa (Homo sapiens); experiment: AT-dependent Xa inhibitory activity assay; format: biochemical
T2 construct: 8 μg/mL FXa solution; purchased
Method in brief: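 Sample preincubated 1 min at 37 °C with antithrombin (1 IU/mL solution), then FXa (8 µg/mL solution) 1 min, then chromogenic substrate SXa-11 (1.25 mM solution). Rate of OD405 change gives residual FXa activity relative to buffer control; duplicates, IC50 fitted with a Hill equation.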

FIIa (Homo sapiens) [3] = target: T3, FIIa (Homo sapiens); experiment: AT-dependent IIa inhibitory activity assay; format: biochemical
T3 construct: antithrombin (i.e., active coagulation factor IIa); purchased
Method in brief: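 Sample preincubated with 1 IU/mL antithrombin 2 min at 37 °C, then 24 IU/mL FIIa 2 min, then 1.25 mM chromogenic substrate CS-01 (stock concentrations). OD405 rate relative to buffer control gave residual activity; IC50 from Hill-equation fit.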
T3 sequence (P01008 33-464): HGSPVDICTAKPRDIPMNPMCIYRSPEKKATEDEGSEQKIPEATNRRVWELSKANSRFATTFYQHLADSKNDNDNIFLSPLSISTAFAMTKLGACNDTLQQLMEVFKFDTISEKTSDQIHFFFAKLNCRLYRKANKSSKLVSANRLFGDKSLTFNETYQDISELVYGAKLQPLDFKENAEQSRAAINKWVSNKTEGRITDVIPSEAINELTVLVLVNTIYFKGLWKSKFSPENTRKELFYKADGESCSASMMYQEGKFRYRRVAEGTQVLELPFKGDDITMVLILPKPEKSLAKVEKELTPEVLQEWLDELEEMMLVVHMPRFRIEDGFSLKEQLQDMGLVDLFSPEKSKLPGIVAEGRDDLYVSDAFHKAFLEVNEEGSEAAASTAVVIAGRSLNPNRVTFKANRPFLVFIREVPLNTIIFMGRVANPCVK

FIIa (Homo sapiens) [4] = target: T4, FIIa (Homo sapiens); experiment: HC-II-dependent IIa inhibitory activity assay; format: biochemical; details: in presence of HC-II; read-out: Drug concentration required to inhibit 50% of coagulation factor activity (IC50, ng/mL) Ha (HC-II) (converted)
T4 construct: antithrombin (i.e., active coagulation factor IIa)
Protocol: HC-II-dependent IIa inhibitory activity assay: 30 μL of sample, control solution or Tris-HCl buffer (negative control) was added, 30 μL of 1 μM HCII solution was added, and incubated at 37° C. for 2 min; and then 30 μL of 20 NIH/mL FIIa was added, and incubated at 37° C. for 1 min; and finally 30 μL of pre-warmed 4.5 mM FIIa chromogenic substrate CS-01 (38) was added. OD405 was detected by a microplate reader and the IC50 value of FIIa inhibition of each sample was calculated.
Data processing: The average value of OD405 detected by the duplicated well was used as the detection value of the test sample and the reference of each concentration, and the slope of the linear fit between the detected value to the time value (the change rate of the absorbance value OD405/min) indicated enzymatic activity of coagulation factor. Taking the clotting factor activity of the negative control well as 100%, coagulation factor activity (percentage) in the presence of the test sample was calculated. The coagulation factor activity in the presence of the test sample was plotted against the concentration of the test sample, and fitted according to the following formula, to calculate the IC50 value: B=(IC50)^n/{(IC50)^n+[I]^n} […]
T4 sequence (P05546 20-499): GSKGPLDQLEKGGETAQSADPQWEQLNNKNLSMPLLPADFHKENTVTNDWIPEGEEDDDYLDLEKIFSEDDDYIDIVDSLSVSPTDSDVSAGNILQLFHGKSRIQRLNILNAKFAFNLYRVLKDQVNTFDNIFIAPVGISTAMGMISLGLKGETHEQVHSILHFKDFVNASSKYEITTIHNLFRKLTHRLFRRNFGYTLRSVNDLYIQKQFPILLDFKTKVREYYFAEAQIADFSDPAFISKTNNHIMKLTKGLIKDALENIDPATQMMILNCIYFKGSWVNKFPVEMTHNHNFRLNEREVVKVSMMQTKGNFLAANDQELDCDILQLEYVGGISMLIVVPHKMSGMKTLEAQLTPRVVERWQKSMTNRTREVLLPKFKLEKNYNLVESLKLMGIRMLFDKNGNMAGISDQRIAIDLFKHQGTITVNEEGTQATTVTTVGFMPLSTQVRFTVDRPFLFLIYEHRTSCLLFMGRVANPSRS

[5] = test system: inferior vena cava thrombosis; experiment: Anti-venous thrombosis experiment (rabbit brain powder infusion plus ligation); format: in vivo, SD rats; details: rats, sc., experimental dose (2.5, 5.0, 10 mg/kg)
Protocol: Grouping and Administration: Rats were randomly divided into 8 groups with 8 animals in each group. The experimental groups and the dose of the animals in each group were (1) natural saline (NS) control group; (2) LMWH 4.0 mg/kg group; (3) A2 2.5 mg/kg group; (4) A2 group 5.0 mg/kg; (5) A2 10 mg/kg group; (6) D1 2.5 mg/kg group; (7) D1 5.0 mg/kg group; (8) D1 10 mg/kg group. The rats in each group were administered subcutaneously (sc.) into the back, and the administration volume was 1 mL/kg. The modeling experiment was performed 1 hour after administration. A New Zealand rabbit was sacrificed, and the rabbit brain was taken out immediately. Rabbit brain powder infusion was prepared according to the literature method (Thromb Haemost, 2010, 103(5): 994-1004), and stored at −20° C. for use. […] The femoral vein was injected with 2% rabbit brain powder infusion (1 mL/kg). After 20 seconds, the lower margin of the left renal vein was ligated. After the operation, the viscera was placed back into the abdominal cavity and covered with medical gauze (infiltrated with natural saline). […] The length of the thrombus was measured, and the wet weight of the thrombus was weighed and then dry weight was weighed after drying at 50° C. for 24 h. The SPSS software was used to organize and analyze the data, and the measurement data were expressed as mean±standard deviation (x±s). […]

mouse tail bleeding = experiment: Bleeding tendency detection (tail-clipping method); format: in vivo; details: mice, sc., high dose of equal multiple of the equivalent antithrombotic dose, vs LMWH
Protocol: Grouping and administration: Mice were randomly divided into 10 groups with 8 animals in each group. The experimental groups and the dose of the animals in each group were (1) natural saline (NS) control group; (2) LMWH 4.0 mg/kg group; (2) LMWH 20 mg/kg group; (3) LMWH 100 mg/Kg group; (4) A2 5 mg/kg group; (5) A2 25 mg/kg group; (6) A2 125 mg/kg group; (7) D1 5 mg/kg group; (8) D1 25 mg/Kg group; (10) D1 125 mg/kg group. The […] in each group were administered subcutaneously (sc.) into the back, and the dose volume was 10 mL/kg.
After 60 min of subcutaneous administration in each experimental group, the mice were placed in a mouse holder, and the tail tip was cut by 5 mm by tail-clipping method, and the mouse tail was immersed in 40 mL of purified water (37° C.) in the beaker. […] At 60 min, the beaker was placed for 60 min and then the absorbance of the solution (OD540) was detected by a UV spectrophotometer.
In addition, whole blood of healthy mice was taken, and the whole blood of different volumes of mice was added to 40 mL of purified water, stirred uniformly and allowed to stand for 60 min. The absorbance (OD540) of the solution was detected by the same method and the volume-absorbance curve was plotted and used as the standard curve for calculating the amount of bleeding. The amount of bleeding in each experimental group was calculated by the standard curve. […]

[6] = read-out: Drug concentration required to inhibit 50% of coagulation factor activity (IC50, ng/mL) Xase (converted)
[7] = in presence of AT; read-out: Drug concentration required to inhibit 50% of coagulation factor activity (IC50, ng/mL) Xa (AT)
[8] = in presence of AT; read-out: Drug concentration required to inhibit 50% of coagulation factor activity (IC50, ng/mL) Ha (AT)

T2 sequence (P01008 33-464): as the sequence (P01008 33-464) above
T1 sequence (P00740 47-191 limits assumed): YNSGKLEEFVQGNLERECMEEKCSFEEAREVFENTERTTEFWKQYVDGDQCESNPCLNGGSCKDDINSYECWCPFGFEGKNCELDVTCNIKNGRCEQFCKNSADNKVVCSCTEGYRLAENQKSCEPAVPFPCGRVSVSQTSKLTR
T1 sequence (P00740 227-461 limits assumed): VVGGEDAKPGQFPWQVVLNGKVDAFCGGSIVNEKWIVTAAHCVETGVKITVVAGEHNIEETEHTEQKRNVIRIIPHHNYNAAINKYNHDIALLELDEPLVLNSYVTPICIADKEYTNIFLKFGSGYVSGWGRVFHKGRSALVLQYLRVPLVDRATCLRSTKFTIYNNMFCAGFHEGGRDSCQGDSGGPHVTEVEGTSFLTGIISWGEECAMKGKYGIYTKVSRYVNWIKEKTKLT

Compound	Drug concentration required for multiplication of coagulation time (μg/mL) APTT (human-controlled plasma [1]) [µg/mL]	Drug concentration required for multiplication of coagulation time (μg/mL) PT (human-controlled plasma [2])	Drug concentration required for multiplication of coagulation time (μg/mL) TT (plasma)	IC50 (intrinsic factor Xase; [6]) [µM]	IC50 (FXa (Homo sapiens); [7]) [µM]	IC50 (FIIa (Homo sapiens) [3]; [8]) [µM]	IC50 (FIIa (Homo sapiens) [4]) [µM]	antithrombotic activity [5]	amount of bleeding (mouse tail bleeding)	IC50 (intrinsic factor Xase; read-out: Drug concentration required to inhibit 50% of coagulation factor activity (IC50, ng/mL) Xase) [µM]	IC50 (FXa (Homo sapiens); read-out: Drug concentration required to inhibit 50% of coagulation factor activity (IC50, ng/mL) Xa (AT); in presence of AT) [µM]	IC50 (FIIa (Homo sapiens) [3]; read-out: Drug concentration required to inhibit 50% of coagulation factor activity (IC50, ng/mL) Ha (AT); in presence of AT) [µM]
CC(=O)N[C@H]1[C@H](O[C@@H]([C@H](O[C@@H]2O[C@@H](C)[C@@H](OS(=O)(=O)O)[C@@H](OS(=O)(=O)O)[C@@H]2O)[C@@H](O)CO)[C@H](O)C(=O)O)O[C@H](COS(=O)(=O)O)[C@H](OS(=O)(=O)O)[C@@H]1O[C@@H]1OC(C(=O)O)=C[C@H](O[C@@H]2O[C@@H](C)[C@@H](OS(=O)(=O)O)[C@@H](OS(=O)(=O)O)[C@@H]2O)[C@H]1O [Compound B1, L-Fuc3S4S-(α1,3)-L-ΔUA-(α1,3)-{D-GalNAc4S6S-(β1,4)-[L-Fuc3S4S-(α1,3)]-D-GlcA-(β1,3)}˜-D-GalNAc4S6S-(β1,4)-[L-Fuc3S4S-(α1,3)]-D-GlcA-ol]	53.9	# (>128 μg/mL)	# (>128 μg/mL)	0.639	> 3.76	> 3.76	0.53					
CC(=O)N[C@H]1[C@H](O[C@H]2[C@H](O[C@@H]3O[C@@H](C)[C@@H](OS(=O)(=O)O)[C@@H](OS(=O)(=O)O)[C@@H]3O)[C@@H](O)C(O)O[C@@H]2C(=O)O)O[C@H](COS(=O)(=O)O)[C@H](OS(=O)(=O)O)[C@@H]1O[C@@H]1OC(C(=O)O)=C[C@H](O[C@@H]2O[C@@H](C)[C@@H](OS(=O)(=O)O)[C@@H](OS(=O)(=O)O)[C@@H]2O)[C@H]1O (stereo partly drawn) [Compound B6, L-Fuc3S4S-(α1,3)-L-ΔUA-(α1,3)-{D-GaNAc4S6S-(β1,4)-[L-Fuc3S4S-(α1,3)]-D-GlcA-(β1,4)}˜-D-GalNAc4S6S-(β1,4)-[L-Fuc3S4S-(α1,3)]-D-GlcA]	50.2	# (>128 μg/mL)	# (>128 μg/mL)	1.26	> 3.76	> 3.76	0.615					
CC(=O)NC(CO)C(OC1OC(C(=O)O)C(OC2OC(COS(=O)(=O)O)C(OS(=O)(=O)O)C(OC3OC(C(=O)O)C(OC4OC(COS(=O)(=O)O)C(OS(=O)(=O)O)C(OC5OC(C(=O)O)=CC(OC6OC(C)C(OS(=O)(=O)O)C(O)C6OS(=O)(=O)O)C5O)C4NC(C)=O)C(OC4OC(C)C(OS(=O)(=O)O)C(O)C4OS(=O)(=O)O)C3O)C2NC(C)=O)C(OC2OC(C)C(OS(=O)(=O)O)C(O)C2OS(=O)(=O)O)C1O)C(OS(=O)(=O)O)C(O)COS(=O)(=O)O [Compound A2, L-Fuc2S4S-(α1,3)-ΔUA-(α1,3)-{D-GaNAc4S6S-(β1,4)-[L-Fuc2S4S-(α1,3)]-D-GlcA-(β1,3)}n+1-D-GalNAc4S6S-ol]	7.2	# (>128 μg/mL)	# (>128 μg/mL)	0.0238	> 1.97	> 1.97		significant antithrombotic activity	significantly lower than that in LMWH administration group			
CC(=O)NC1C(OC2C(C(=O)O)OC(OC3C(NC(C)=O)C(OC4C(C(=O)O)OC(OC5C(NC(C)=O)C(OC6C(C(=O)O)OC(OC7C(NC(C)=O)C(OC8C(C(=O)O)OC(OC9C(NC(C)=O)C(OC(C(O)C(=O)O)C(OC%10OC(C)C(OS(=O)(=O)O)C(OS(=O)(=O)O)C%10O)C(O)CO)OC(COS(=O)(=O)O)C9OS(=O)(=O)O)C(O)C8OC8OC(C)C(OS(=O)(=O)O)C(OS(=O)(=O)O)C8O)OC(COS(=O)(=O)O)C7OS(=O)(=O)O)C(O)C6OC6OC(C)C(OS(=O)(=O)O)C(OS(=O)(=O)O)C6O)OC(COS(=O)(=O)O)C5OS(=O)(=O)O)C(O)C4OC4OC(C)C(OS(=O)(=O)O)C(OS(=O)(=O)O)C4O)OC(COS(=O)(=O)O)C3OS(=O)(=O)O)C(O)C2OC2OC(C)C(OS(=O)(=O)O)C(OS(=O)(=O)O)C2O)OC(COS(=O)(=O)O)C(OS(=O)(=O)O)C1OC1OC(C(=O)O)=CC(OC2OC(C)C(OS(=O)(=O)O)C(OS(=O)(=O)O)C2O)C1O [Compound B5, L-Fuc3S4S-(α1,3)-L-ΔUA-(α1,3)-{D-GalNAc4S6S-(β1,4)-[L-Fuc3S4S-(α1,3)]-D-GlcA-(β1,3)}˜-D-GalNAc4S6S-(β1,4)-[L-Fuc3S4S-(α1,3)]-D-GlcA-ol]	4.0	# (>128 μg/mL)	# (>128 μg/mL)							0.0042	> 1.06	> 1.06
